Test results: PubChem BioAssay AID1919015 (Molecular Pharmacology Branch, DTP, NCI, 2023)
pIC50: −log10 of the molar value.

Tested on: OVCAR-5 complex spheroids with HUVEC/MSC, viability, % test/control
Assay: Anticancer human tumor OVCAR-5 cell line growth inhibition [AhR];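 further: spheroids exposed to compounds for 7 days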;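 on viability, T/C: 100% = DMSO vehicle control wells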
Conditions: for pIC50: curve of first compound; for viability, T/C: stronger effect = lower value
In short: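 Spheroids combined tumor cells with HUVEC endothelial cells and human MSCs as stroma. AhR antagonists were paired with standard or investigational drugs, each dosed in half-log steps down from near clinical Cmax, or from 10 microM where Cmax was unknown.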

[1] = second compound 0.1 µM, first compound 0.0316 µM
[2] = second compound 0.1 µM, first compound 0.1 µM
[3] = second compound 0.1 µM, first compound 0.316 µM
[4] = second compound 0.1 µM, first compound 1 µM
[5] = second compound 0.1 µM, first compound 3.16 µM
[6] = second compound 0.1 µM, first compound 10 µM
[7] = second compound 0.316 µM, first compound 0.0316 µM
[8] = second compound 0.316 µM, first compound 0.1 µM
[9] = second compound 0.316 µM, first compound 0.316 µM
[10] = second compound 0.316 µM, first compound 1 µM
[11] = second compound 0.316 µM, first compound 3.16 µM
[12] = second compound 0.316 µM, first compound 10 µM
[13] = second compound 1 µM, first compound 0.0316 µM
[14] = second compound 1 µM, first compound 0.1 µM
[15] = second compound 1 µM, first compound 0.316 µM
[16] = second compound 1 µM, first compound 1 µM
[17] = second compound 1 µM, first compound 3.16 µM
[18] = second compound 1 µM, first compound 10 µM
[19] = second compound 3.16 µM, first compound 0.0316 µM
[20] = second compound 3.16 µM, first compound 0.1 µM
[21] = second compound 3.16 µM, first compound 0.316 µM
[22] = second compound 3.16 µM, first compound 1 µM
[23] = second compound 3.16 µM, first compound 3.16 µM
[24] = second compound 3.16 µM, first compound 10 µM
[25] = second compound 10 µM, first compound 0.0316 µM
[26] = second compound 10 µM, first compound 0.1 µM
[27] = second compound 10 µM, first compound 0.316 µM
[28] = second compound 10 µM, first compound 1 µM
[29] = second compound 10 µM, first compound 3.16 µM
[30] = second compound 10 µM, first compound 10 µM
[31] = second compound 0.1 µM, first compound 0.00949 µM
[32] = second compound 0.1 µM, first compound 0.03 µM
[33] = second compound 0.1 µM, first compound 0.0949 µM
[34] = second compound 0.1 µM, first compound 0.3 µM
[35] = second compound 0.1 µM, first compound 0.949 µM
[36] = second compound 0.1 µM, first compound 3 µM
[37] = second compound 0.316 µM, first compound 0.00949 µM
[38] = second compound 0.316 µM, first compound 0.03 µM
[39] = second compound 0.316 µM, first compound 0.0949 µM
[40] = second compound 0.316 µM, first compound 0.3 µM
[41] = second compound 0.316 µM, first compound 0.949 µM
[42] = second compound 0.316 µM, first compound 3 µM
[43] = second compound 1 µM, first compound 0.00949 µM
[44] = second compound 1 µM, first compound 0.03 µM
[45] = second compound 1 µM, first compound 0.0949 µM
[46] = second compound 1 µM, first compound 0.3 µM
[47] = second compound 1 µM, first compound 0.949 µM
[48] = second compound 1 µM, first compound 3 µM
[49] = second compound 3.16 µM, first compound 0.00949 µM
[50] = second compound 3.16 µM, first compound 0.03 µM
[51] = second compound 3.16 µM, first compound 0.0949 µM
[52] = second compound 3.16 µM, first compound 0.3 µM
[53] = second compound 3.16 µM, first compound 0.949 µM
[54] = second compound 3.16 µM, first compound 3 µM
[55] = second compound 10 µM, first compound 0.00949 µM
[56] = second compound 10 µM, first compound 0.03 µM
[57] = second compound 10 µM, first compound 0.0949 µM
[58] = second compound 10 µM, first compound 0.3 µM
[59] = second compound 10 µM, first compound 0.949 µM
[60] = second compound 10 µM, first compound 3 µM

CC1(C)CCC(CN2CCN(c3ccc(C(=O)NS(=O)(=O)c4ccc(NCC5CCOCC5)c([N+](=O)[O-])c4)c(Oc4cnc5[nH]ccc5c4)c3)CC2)=C(c2ccc(Cl)cc2)C1 + CC(CO)NC(=O)c1cc(-c2ccc(Cl)cc2)nn(-c2cnn(C)c2)c1=O
pIC50 (second compound 0.1 µM): < 5.00 | pIC50 (second compound 0.316 µM): < 5.00 | pIC50 (second compound 1 µM): < 5.00 | pIC50 (second compound 3.16 µM): < 5.00 | pIC50 (second compound 10 µM): < 5.00 | viability, T/C [1]: 107% | viability, T/C [2]: 107% | viability, T/C [3]: 109% | viability, T/C [4]: 113% | viability, T/C [5]: 118% | viability, T/C [6]: 51.4% | viability, T/C [7]: 111% | viability, T/C [8]: 107% | viability, T/C [9]: 113% | viability, T/C [10]: 114% | viability, T/C [11]: 118% | viability, T/C [12]: 50.6% | viability, T/C [13]: 115% | viability, T/C [14]: 116% | viability, T/C [15]: 122% | viability, T/C [16]: 120% | viability, T/C [17]: 122% | viability, T/C [18]: 53.8% | viability, T/C [19]: 102% | viability, T/C [20]: 106% | viability, T/C [21]: 104% | viability, T/C [22]: 111% | viability, T/C [23]: 114% | viability, T/C [24]: 53.8% | viability, T/C [25]: 100% | viability, T/C [26]: 102% | viability, T/C [27]: 104% | viability, T/C [28]: 104% | viability, T/C [29]: 106% | viability, T/C [30]: 57.6%

CC1COCCN1c1cc(C2(S(C)(=N)=O)CC2)nc(-c2ccnc3[nH]ccc23)n1 (stereo not given) + CC(CO)NC(=O)c1cc(-c2ccc(Cl)cc2)nn(-c2cnn(C)c2)c1=O
pIC50 (second compound 0.1 µM): 5.04 | pIC50 (second compound 0.316 µM): 5.00 | pIC50 (second compound 1 µM): < 5.00 | pIC50 (second compound 3.16 µM): 5.05 | pIC50 (second compound 10 µM): 5.18 | viability, T/C [1]: 106% | viability, T/C [2]: 105% | viability, T/C [3]: 104% | viability, T/C [4]: 101% | viability, T/C [5]: 80.9% | viability, T/C [6]: 47.1% | viability, T/C [7]: 109% | viability, T/C [8]: 105% | viability, T/C [9]: 107% | viability, T/C [10]: 108% | viability, T/C [11]: 81.6% | viability, T/C [12]: 49.7% | viability, T/C [13]: 116% | viability, T/C [14]: 112% | viability, T/C [15]: 112% | viability, T/C [16]: 109% | viability, T/C [17]: 89.9% | viability, T/C [18]: 53% | viability, T/C [19]: 108% | viability, T/C [20]: 101% | viability, T/C [21]: 100% | viability, T/C [22]: 93.1% | viability, T/C [23]: 77.2% | viability, T/C [24]: 46.7% | viability, T/C [25]: 96.1% | viability, T/C [26]: 97.5% | viability, T/C [27]: 95.4% | viability, T/C [28]: 83.8% | viability, T/C [29]: 61.5% | viability, T/C [30]: 43.7%

CCN(c1cc(-c2ccc(CN3CCOCC3)cc2)cc(C(=O)NCc2c(C)cc(C)[nH]c2=O)c1C)C1CCOCC1 + CC(CO)NC(=O)c1cc(-c2ccc(Cl)cc2)nn(-c2cnn(C)c2)c1=O
pIC50 (second compound 0.1 µM): < 5.52 | pIC50 (second compound 0.316 µM): < 5.52 | pIC50 (second compound 1 µM): < 5.52 | pIC50 (second compound 3.16 µM): < 5.52 | pIC50 (second compound 10 µM): < 5.52 | viability, T/C [31]: 114% | viability, T/C [32]: 111% | viability, T/C [33]: 111% | viability, T/C [34]: 110% | viability, T/C [35]: 106% | viability, T/C [36]: 109% | viability, T/C [37]: 113% | viability, T/C [38]: 117% | viability, T/C [39]: 114% | viability, T/C [40]: 107% | viability, T/C [41]: 111% | viability, T/C [42]: 110% | viability, T/C [43]: 116% | viability, T/C [44]: 118% | viability, T/C [45]: 119% | viability, T/C [46]: 115% | viability, T/C [47]: 113% | viability, T/C [48]: 117% | viability, T/C [49]: 108% | viability, T/C [50]: 113% | viability, T/C [51]: 107% | viability, T/C [52]: 98.8% | viability, T/C [53]: 91.8% | viability, T/C [54]: 97.8% | viability, T/C [55]: 102% | viability, T/C [56]: 106% | viability, T/C [57]: 99% | viability, T/C [58]: 97.7% | viability, T/C [59]: 98.1% | viability, T/C [60]: 99.9%

Nc1ncn(C2CC(O)C(CO)S2)c(=O)n1 (stereo not given) + CC(CO)NC(=O)c1cc(-c2ccc(Cl)cc2)nn(-c2cnn(C)c2)c1=O
pIC50 (second compound 0.1 µM): < 6.52 | pIC50 (second compound 0.316 µM): < 6.52 | pIC50 (second compound 1 µM): < 6.52 | pIC50 (second compound 3.16 µM): < 6.52 | pIC50 (second compound 10 µM): < 6.52 | viability, T/C (second compound 0.1 µM, first compound 0.000949 µM): 104% | viability, T/C (second compound 0.1 µM, first compound 0.003 µM): 110% | viability, T/C [31]: 106% | viability, T/C [32]: 110% | viability, T/C [33]: 103% | viability, T/C [34]: 85.3% | viability, T/C (second compound 0.316 µM, first compound 0.000949 µM): 103% | viability, T/C (second compound 0.316 µM, first compound 0.003 µM): 109% | viability, T/C [37]: 109% | viability, T/C [38]: 105% | viability, T/C [39]: 101% | viability, T/C [40]: 84.6% | viability, T/C (second compound 1 µM, first compound 0.000949 µM): 109% | viability, T/C (second compound 1 µM, first compound 0.003 µM): 112% | viability, T/C [43]: 113% | viability, T/C [44]: 109% | viability, T/C [45]: 106% | viability, T/C [46]: 91.9% | viability, T/C (second compound 3.16 µM, first compound 0.000949 µM): 101% | viability, T/C (second compound 3.16 µM, first compound 0.003 µM): 104% | viability, T/C [49]: 102% | viability, T/C [50]: 104% | viability, T/C [51]: 93.3% | viability, T/C [52]: 83.5% | viability, T/C (second compound 10 µM, first compound 0.000949 µM): 99.7% | viability, T/C (second compound 10 µM, first compound 0.003 µM): 101% | viability, T/C [55]: 98.9% | viability, T/C [56]: 98.4% | viability, T/C [57]: 93% | viability, T/C [58]: 86.2%

O=C(C=Cn1cnc(-c2cc(C(F)(F)F)cc(C(F)(F)F)c2)n1)NNc1cnccn1 + CC(CO)NC(=O)c1cc(-c2ccc(Cl)cc2)nn(-c2cnn(C)c2)c1=O
pIC50 (second compound 0.1 µM): 5.72 | pIC50 (second compound 0.316 µM): 5.66 | pIC50 (second compound 1 µM): 5.57 | pIC50 (second compound 3.16 µM): 5.69 | pIC50 (second compound 10 µM): 5.78 | viability, T/C [31]: 109% | viability, T/C [32]: 113% | viability, T/C [33]: 101% | viability, T/C [34]: 86.7% | viability, T/C [35]: 66.4% | viability, T/C [36]: 39.6% | viability, T/C [37]: 110% | viability, T/C [38]: 110% | viability, T/C [39]: 104% | viability, T/C [40]: 86% | viability, T/C [41]: 64% | viability, T/C [42]: 44.7% | viability, T/C [43]: 113% | viability, T/C [44]: 114% | viability, T/C [45]: 111% | viability, T/C [46]: 90.1% | viability, T/C [47]: 70.2% | viability, T/C [48]: 47.5% | viability, T/C [49]: 101% | viability, T/C [50]: 112% | viability, T/C [51]: 103% | viability, T/C [52]: 87.5% | viability, T/C [53]: 69.7% | viability, T/C [54]: 40.1% | viability, T/C [55]: 97% | viability, T/C [56]: 98.2% | viability, T/C [57]: 97.6% | viability, T/C [58]: 83.3% | viability, T/C [59]: 65.8% | viability, T/C [60]: 34.2%
